According to patent US9115117B2, “Substituted piperidine compounds and their use as orexin receptor modulators” (JANSSEN PHARMACEUTICA NV, priority 2013, dated 2015):
Structures can show the parent of a compound that is named as a salt.

Columns and labels:
human orexin 1 receptor = human orexin 1 receptor (Homo sapiens, UniProt O43613); assay: Human orexin 1 receptor radioligand binding; settings: CHO cells stably expressing human orexin 1 receptor; apparent Ki; read-out: hOX1 Ki
Description: The in vitro affinity of the compounds of the invention for the rat/human orexin 1 and human orexin 2 receptors was determined by competitive radioligand binding using [^3H](1-(5-(2-fluoro-phenyl)-2-methyl-thiazol-4-yl)-1-((S)-2-(5-phenyl-(1,3,4)oxadiazol-2-ylmethyl)-pyrrolidin-1-yl)-methanone)(Langmead et al., 2004) and [^3H]EMPA (n-ethyl-2[96-methoxy-pyridin-3-yl)-(toluene-2-sulfonyl)-amino]-N-pyridin-3-ylmethyl acetamide), respectively (Langmead et al., 2004, British Journal of Pharmacology 141:340-346; Malherbe et al., 2004, British Journal of Pharmacology 156:1326-41).
Human Embryonic Kidney 293 cells (HEK293) stably expressing rat orexin 1 receptor (Genebank accession number NM_001525) or Chinese ovary cells (CHO) stably expressing human orexin 1 receptor (Genebank accession number NM_001526) were grown to confluency in DMEM (Hyclone, cat #SH30022), 10% FBS, 1× Pen/Strep, 1× sodium pyruvate, 10 mM HEPES, 600 µg/mL G418 and DMEM/F12 (Gibco, Cat #11039), 10% FBS, 1× Pen/Strep, 600 µg/mL G418 media, respectively on 150 cm^2 tissue culture plates, washed with 5 mM EDTA in PBS (HyClone Dulbecco's Phoshpate Buffered Saline 1× with Calcium and Magnesium, Cat #SH30264.01, hereafter referred to simply as PBS) and scraped into 50 ml tubes. After centrifugation (2K×G, 5 min at 4° C.), the supernatant was aspirated and the pellets frozen and stored at −80° C. Cells were resuspended in PBS in the presence of 1 tablet of protease inhibitor cocktail (Roche, Cat. #11836145001) per 50 mL. Each cell pellet from a 15 cm plate was resuspended in 10 mL, stored on ice, and homogenized for 45 sec prior to addition to the reactions. Competition binding experiments in 96 well polypropylene plates were performed using [^3H]-(1-(5-(2-fluoro-phenyl)-2-methyl-thiazol-4-yl)-1-((S)-2-(5-phenyl-(1,3,4)oxadiazol-2-ylmethyl)-pyrrolidin-1-yl)-methanone) (Moraveck Corporation, specific activity=35.3 Ci/mmol), diluted to a 10 nM concentration in PBS (4 nM final). […] The final concentration of DMSO in the reactions is equal to or less than 0.1%. Total and nonspecific binding was determined in the absence and presence of 10 μM almorexant. The total volume of each reaction is 200 μL (20 μL of diluted compounds, 80 μL of [3H]-(1-(5-(2-fluoro-phenyl)-2-methyl-thiazol-4-yl)-1-((S)-2-(5-phenyl-(1,3,4)oxadiazol-2-ylmethyl)-pyrrolidin-1-yl)-methanone) diluted in PBS and 100 μL of the cell suspension). Reactions were run for 60 min at room temperature and terminated by filtration through GF/C filter plates (PerkinElmer, Cat. #6005174) presoaked in 0.3% polyethylenimine using the cell harvester (PerkinElmer Filtermate). The plates were washed 3 times by aspirating 30 ml PBS through the plates. Plates were dried in 55° C. oven for 60 min, scintillation fluid was added, and the radioactivity was counted on a Topcount (Packard).

human orexin 2 receptor = human orexin 2 receptor (Homo sapiens (Human), UniProt O43614); assay: Human orexin 2 receptor radioligand binding ([3H]-EMPA); settings: HEK293 stably expressing human orexin 2 receptor; [3H]-EMPA; apparent Ki; read-out: hOX2 Ki
Description: After centrifugation (2K×G, 5 min at 4° C.), the supernatant was aspirated and the pellets frozen and stored at −80° C. […] Each cell pellet from a 15 cm plate was resuspended in 10 mL, stored on ice, and homogenized for 45 sec just prior to addition to the reactions. Competition binding experiments in 96 well polypropylene plates were performed using [^3H]-EMPA (Moraveck Corporation, specific activity=29.6 Ci/mmol), diluted to a 5 nM concentration in PBS (2 nM final concentration). […] The final concentration of DMSO in the reactions is equal to or less than 0.1%. Total and nonspecific binding was determined in the absence and presence of […]. The total volume of each reaction is 200 μL (20 μL of diluted compounds, 80 μL of [^3H]-EMPA diluted in PBS and 100 μL of the cell suspension).
The plates were washed 3 times by aspirating 30 ml PBS through the plates. Plates were dried in 55° C. oven for 60 min, scintillation fluid was added, and the radioactivity was counted on a Topcount (Packard).

rat orexin 1 receptor = rat orexin 1 receptor (Rattus norvegicus, UniProt P56718); assay: Rat orexin 1 receptor radioligand binding; settings: HEK293 cells stably expressing rat orexin 1 receptor; apparent Ki; read-out: rOX1 Ki
Description: After centrifugation (2K×G, 5 min at 4° C.), the supernatant was aspirated and the pellets frozen and stored at −80° C. […] Each cell pellet from a 15 cm plate was resuspended in 10 mL, stored on ice, and homogenized for 45 sec prior to addition to the reactions. Competition binding experiments in 96 well polypropylene plates were performed using [^3H]-(1-(5-(2-fluoro-phenyl)-2-methyl-thiazol-4-yl)-1-((S)-2-(5-phenyl-(1,3,4)oxadiazol-2-ylmethyl)-pyrrolidin-1-yl)-methanone) (Moraveck Corporation, specific activity=35.3 Ci/mmol), diluted to a 10 nM concentration in PBS (4 nM final). […] The final concentration of DMSO in the reactions is equal to or less than 0.1%. Total and nonspecific binding was determined in the absence and presence of 10 μM almorexant. The total volume of each reaction is 200 μL (20 μL of diluted compounds, 80 μL of [3H]-(1-(5-(2-fluoro-phenyl)-2-methyl-thiazol-4-yl)-1-((S)-2-(5-phenyl-(1,3,4)oxadiazol-2-ylmethyl)-pyrrolidin-1-yl)-methanone) diluted in PBS and 100 μL of the cell suspension). […] The plates were washed 3 times by aspirating 30 ml PBS through the plates. Plates were dried in 55° C. oven for 60 min, scintillation fluid was added, and the radioactivity was counted on a Topcount (Packard).

Chain of human orexin 2 receptor (O43614 whole entry): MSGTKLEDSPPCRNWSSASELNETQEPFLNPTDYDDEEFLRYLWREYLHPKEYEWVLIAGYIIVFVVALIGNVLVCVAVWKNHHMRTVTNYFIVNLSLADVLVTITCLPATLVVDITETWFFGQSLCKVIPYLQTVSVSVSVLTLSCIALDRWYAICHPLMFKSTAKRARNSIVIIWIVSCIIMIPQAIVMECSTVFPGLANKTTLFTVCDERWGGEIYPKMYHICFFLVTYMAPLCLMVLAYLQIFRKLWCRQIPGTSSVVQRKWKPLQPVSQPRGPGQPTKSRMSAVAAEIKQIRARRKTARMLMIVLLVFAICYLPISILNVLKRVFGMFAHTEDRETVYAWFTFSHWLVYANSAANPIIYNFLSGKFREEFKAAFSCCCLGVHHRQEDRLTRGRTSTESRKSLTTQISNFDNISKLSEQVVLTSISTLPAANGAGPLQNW

| SMILES | Ki (human orexin 1 receptor) [nM] | Ki (human orexin 2 receptor) [nM] | Ki (rat orexin 1 receptor) [nM] |
| --- | --- | --- | --- |
| Cc1cc(C)nc(N[C@@H]2CCCN(C(=O)c3ccc(F)cc3-n3nccn3)[C@H]2C)n1 (racemic) [Example 1, (±)-trans-(3-((4,6-dimethylpyrimidin-2-yl)amino)-2-methylpiperidin-1-yl)(4-fluoro-2-(2H-1,2,3-triazol-2-yl)phenyl)methanone] | 1030 | 290 | – |
| Cc1cc(C)nc(N[C@@H]2CCCN(C(=O)c3c(F)cccc3-n3nccn3)[C@H]2C)n1 (racemic) [Example 3, (±)-trans-(3-((4,6-dimethylpyrimidin-2-yl)amino)-2-methylpiperidin-1-yl)(2-fluoro-6-(2H-1,2,3-triazol-2-yl)phenyl)methanone] | 1060 | 260 | – |
| Cc1cc(N[C@@H]2CCCN(C(=O)c3cc(F)ccc3-c3ncccn3)[C@H]2C)nc(C(F)(F)F)n1 (racemic) [Example 9, (±)-trans-(5-fluoro-2-(pyrimidin-2-yl)phenyl)(2-methyl-3-((6-methyl-2-(trifluoromethyl)pyrimidin-4-yl)amino)piperidin-1-yl)methanone] | 6710 | 2050 | – |
| Cc1ccc(C(=O)N2CCC[C@@H](Nc3nccc(C(F)(F)F)n3)[C@@H]2C)c(-n2ccnn2)n1 (racemic) [Example 11, (±)-trans-(6-methyl-2-(1H-1,2,3-triazol-1-yl)pyridin-3-yl)(2-methyl-3-((4-(trifluoromethyl)pyrimidin-2-yl)amino)piperidin-1-yl)methanone] | 9000 | – | – |
| Cc1ccc(-c2ncccn2)c(C(=O)N2CCC[C@@H](Nc3ccc(C(F)(F)F)cn3)[C@@H]2C)n1 (racemic) [Example 23, (±)-trans-(2-methyl-3-((5-(trifluoromethyl)pyridin-2-yl)amino)piperidin-1-yl)(6-methyl-3-(pyrimidin-2-yl)pyridin-2-yl)methanone hydrochloride] | 23 | 208 | – |
| COc1c(F)cccc1C(=O)N1CCC[C@@H](Nc2nc3cc(Cl)ccc3o2)[C@H]1C (racemic) [Example 62, (±)-cis-(3-((5-chlorobenzo[d]oxazol-2-yl)amino)-2-methylpiperidin-1-yl)(3-fluoro-2-methoxyphenyl)methanone] | – | 5700 | 1800 |
| COc1c(F)cccc1C(=O)N1CCC[C@@H](Nc2cnc3ccccc3n2)[C@H]1C (racemic) [Example 64, (±)-cis-(3-fluoro-2-methoxyphenyl)(2-methyl-3-(quinoxalin-2-ylamino)piperidin-1-yl)methanone] | – | 1300 | 1100 |
| Cc1ccc(C(=O)N2CCC[C@H](Nc3ccc(C(F)(F)F)cn3)[C@H]2C)c(-n2nccn2)c1 [Example 15, (4-methyl-2-(2H-1,2,3-triazol-2-yl)phenyl)((2R,3S)-2-methyl-3-((5-(trifluoromethyl)pyridin-2-yl)amino)piperidin-1-yl)methanone] | – | > 10000 | 8200 |
| C[C@H]1[C@H](Nc2ccc(F)cn2)CCCN1C(=O)c1ccccc1-n1nccn1 [Example 34, (2-(2H-1,2,3-triazol-2-yl)phenyl)((2S,3R)-3-((5-fluoropyridin-2-yl)amino)-2-methylpiperidin-1-yl)methanone] | – | 700 | 355 |

Further lines, results first:

| Ki (human orexin 1 receptor) [nM] | Ki (human orexin 2 receptor) [nM] | Ki (rat orexin 1 receptor) [nM] | SMILES |
| --- | --- | --- | --- |
| 400 | 217 | – | Cc1cc(C)nc(N[C@@H]2CCCN(C(=O)c3c(F)cccc3-c3ncccn3)[C@H]2C)n1 (racemic) [Example 2, (±)-trans-(3-((4,6-dimethylpyrimidin-2-yl)amino)-2-methylpiperidin-1-yl)(2-fluoro-6-(pyrimidin-2-yl)phenyl)methanone] |
| 78 | 40 | – | Cc1cc(C)nc(N[C@@H]2CCCN(C(=O)c3ccccc3-n3nccn3)[C@H]2C)n1 (racemic) [Example 4, (±)-trans-(2-(2H-1,2,3-triazol-2-yl)phenyl)(3-((4,6-dimethylpyrimidin-2-yl)amino)-2-methylpiperidin-1-yl)methanone] |
| 560 | 116 | – | Cc1cc(C)nc(N[C@@H]2CCCN(C(=O)c3cc(F)ccc3-n3nccn3)[C@H]2C)n1 (racemic) [Example 5, (±)-trans-(3-((4,6-dimethylpyrimidin-2-yl)amino)-2-methylpiperidin-1-yl)(5-fluoro-2-(2H-1,2,3-triazol-2-yl)phenyl)methanone] |
| 462 | 587 | – | Cc1ccc(-n2nccn2)c(C(=O)N2CCC[C@@H](Nc3cc(C)nc(C(F)(F)F)n3)[C@@H]2C)c1 (racemic) [Example 8, (±)-trans-(5-methyl-2-(2H-1,2,3-triazol-2-yl)phenyl)(2-methyl-3-((6-methyl-2-(trifluoromethyl)pyrimidin-4-yl)amino)piperidin-1-yl)methanone] |
| 315 | 144 | – | C[C@H]1[C@H](Nc2nccc(C(F)(F)F)n2)CCCN1C(=O)c1c(F)cccc1-n1nccn1 (racemic) [Example 10, (±)-trans-(2-fluoro-6-(2H-1,2,3-triazol-2-yl)phenyl)(2-methyl-3-((4-(trifluoromethyl)pyrimidin-2-yl)amino)piperidin-1-yl)methanone] |
| 54 | – | 55 | C[C@H]1[C@H](Nc2ncc(Cl)cn2)CCCN1C(=O)c1ccccc1-n1nccn1 (racemic) [Example 30, (±)-trans-(2-(2H-1,2,3-triazol-2-yl)phenyl)(3-((5-chloropyrimidin-2-yl)amino)-2-methylpiperidin-1-yl)methanone] |
| 29 | – | – | C[C@H]1[C@H](Nc2ncc(C(F)(F)F)cn2)CCCN1C(=O)c1ccccc1-n1nccn1 (racemic) [Example 35, (±)-trans-(2-(2H-1,2,3-triazol-2-yl)phenyl)(2-methyl-3-((5-(trifluoromethyl)pyrimidin-2-yl)amino)piperidin-1-yl)methanone] |
| 71 | – | 76 | Cc1ccc(N[C@@H]2CCCN(C(=O)c3ccccc3-n3nccn3)[C@H]2C)nc1 (racemic) [Example 37, (±)-trans-(2-(2H-1,2,3-triazol-2-yl)phenyl)(2-methyl-3-((5-methylpyridin-2-yl)amino)piperidin-1-yl)methanone] |
